Assay results as given in patent publication US20250170212A1, “COMPOSITIONS AND METHODS OF TREATING AMYOTROPHIC LATERAL SCLEROSIS (ALS) AND RELATED DISORDERS” (BIOINCEPT, LLC, priority 2022, published 2025).
“Also recorded” adds a separate entry of the source.

Experiments:
Assay type in all cases: in vivo, mouse
IL-1α = assay: Serum cytokine analysis, multiplex ELISA; conditions: serum collected weekly; compared to Injury and mGRPs groups
Description: (§1) Samples were collected every week, starting from day of graft transplantation (day 0), 100 μl of blood from mouse tail. Blood was stored 1 h in room temperature, and overnight in +4° C. Serum was gently aspirated, and centrifuged 10 min with 2000 RPM to separate blood morphotic bodies. Purified serum was stored in −80° C. until further analysis. Multiplex ELISA 23-cytokine kit (M60009RDPD) was obtained from Bio-Rad (Bio-Plex Pro Mouse Cytokine 23-plex Assay #M60009RDPD, Hercules, Bio-Rad, CA, USA, RRID: AB_2857368) and performed according to instructions. 50 μl of diluted in sample diluent, 1:4 serum samples and diluted at range 1:10-1:20. Measurement standards were used, diluted 9 times according to the protocol and added at template plate. Vortexed beads were added to the assay 96-well plate. Plate was again washed 3 times with wash buffer, then from template plate, 50 μl of samples, standards and blank were transferred to measurement plate with multichannel pipette. Plate was sealed with tape and incubated 30 min. After this time, plate was washed 3 times. 25 μl of detection antibody was added to the wells with multichannel pipette. Plate was sealed and incubated for 30 min. and next washed 3 times using wash buffer. […] Beads were resuspended with 125 μl of assay buffer and analysis was performed with Bio Plex 200 reader.
(§2) All quantifications were performed including the manual cell counts in a blinded manner. The NeuN and Ibal were counted as positive cells in the ROI (see above) as previously reported. The number of cells was determined by unbiased counting of positive cells. […] Differences between groups were analyzed using a repeated measure ANOVA model with a fixed effect for the group, of the time and a random intercept for the mouse. In a second, more explorative, approach for each group the time when the physical activity was first measured below a certain threshold was determined. […] The clinically relevant threshold was determined according to previous observations and defined as value 0.9 for the Wire Test. […] The statistical significance at p<0.05 was then determined.

IL-12 = assay: Serum cytokine analysis, multiplex ELISA; conditions: serum collected weekly; compared to other groups
Description: as §1, §2

[1] = system: transgenic SOD1^G93A mice; assay: Survival of ALS mice (Kaplan-Meier) after mGRPs transplantation with immunomodulatory drugs; conditions: n=6 per group, mGRPs into cisterna magna, drug groups all with mGRPs: sPIF 1 mg/kg day -1 to 14, Tac 1 mg/kg daily to day 56, CB 25 mg/kg days 0, 2, 4, 6
Excerpt: B6.Cg-Tg (SOD1^G93A) 1Gur/J (Animalab, The Jackson Laboratory, Bar Harbor, ME, USA, RRID: IMSR JAX:004435) and SCID (Animalab, Charles River Laboratory, Wilmington, MA, USA, RRID: IMSR_JAX:001303) mice were obtained from JaxMice. SOD1^G93A animals were divided randomly into 5 groups and SCID animals were used as control.
mGRP cells were received as a gift from the Department of Radiology and Radiological Science, Johns Hopkins School of Medicine (Baltimore, MD, USA). Cells were isolated as previously described from spinal cords dissected from Luc+/PLP/GFP+ mice between E12.5 and E14 stage. […] The viability of the mGRPs was assessed with trypan blue exclusion and only suspensions with over 70% of cell viability were used for transplantation. […]
All quantifications were performed including the manual cell counts in a blinded manner. The NeuN and Ibal were counted as positive cells in the ROI (see above) as previously reported. The number of cells was determined by unbiased counting of positive cells. […] Differences between groups were analyzed using a repeated measure ANOVA model with a fixed effect for the group, of the time and a random intercept for the mouse. In a second, more explorative, approach for each group the time when the physical activity was first measured below a certain threshold was determined. […]

MVRIKPGSANKPSDD [sPIF] was tested, and the “peripheral IL-1α cytokine peak” value (IL-1α) was “decreased IL-1α peak significantly”, the “peripheral IL-12 cytokine level” value (IL-12) was “plateaued at day 28” and the “mice survival (Kaplan-Meier)” value [1] was “seemed to be superior compared to other immune modulatory drugs; also recorded: seems superior but did not reach statistical significance”.
